The source of these data is ChEMBL document CHEMBL1201862, “PubChem BioAssay data set” (2004).

As usually defined, the IC50 is the point on the concentration scale where inhibition reaches its midpoint. A word on the AC50: it is the concentration giving half of the maximal activity seen. The EC50 is the concentration giving half of the maximal effect. As a reminder, the CC50 is the concentration that lowers cell viability or growth by half.

Assay [1] addresses Intestinal-type alkaline phosphatase (Homo sapiens, UniProt P09923). The assay is described as follows: inhibition of human intestinal alkaline phosphatase – biochemical, dose response (AID 488876). It counts as functional.
Assay [2] deals with T1, Alkaline phosphatase, tissue-nonspecific isozyme (Homo sapiens, UniProt P05186).
T1 sequence (P05186 whole entry): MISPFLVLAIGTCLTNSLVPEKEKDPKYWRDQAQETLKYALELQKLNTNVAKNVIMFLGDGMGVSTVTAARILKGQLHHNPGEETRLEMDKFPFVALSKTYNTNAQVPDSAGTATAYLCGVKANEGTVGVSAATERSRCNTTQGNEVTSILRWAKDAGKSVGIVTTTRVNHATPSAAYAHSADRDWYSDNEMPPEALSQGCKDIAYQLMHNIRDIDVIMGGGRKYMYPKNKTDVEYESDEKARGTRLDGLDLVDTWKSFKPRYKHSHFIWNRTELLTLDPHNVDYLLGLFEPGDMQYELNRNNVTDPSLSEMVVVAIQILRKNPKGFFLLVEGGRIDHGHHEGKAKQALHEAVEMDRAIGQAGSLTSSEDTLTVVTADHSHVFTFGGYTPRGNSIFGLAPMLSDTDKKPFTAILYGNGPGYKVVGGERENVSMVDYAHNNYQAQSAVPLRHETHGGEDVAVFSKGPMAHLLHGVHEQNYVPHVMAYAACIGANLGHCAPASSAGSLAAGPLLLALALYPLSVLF
The assay is described as follows: TNAP enzyme inhibition by screening hits, dose response, selectivity assay for mouse IAP inhibitor project, biochemical, human TNAP, uHTS hits (AID 488906). It is filed as functional.

Assay [3] deals with Intestinal-type alkaline phosphatase (Mus musculus, UniProt P24822). The assay is described as follows: PubChem AID 488785. It counts as functional.
The target of the next assay is Paired box protein Pax-8 (Homo sapiens, UniProt Q06710). As to the kind of experiment: PAX8 transcriptional activity inhibition in RMG-I – RMG-I cells, luciferase, cherry-pick, dose response (AID 687027).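 Further: luciferase reporter driven by Pax8 target thyroperoxidase promoter measured by SteadyGlo luminescence.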 It counts as functional, cell-based.
Assay [4] in a line: general cell-killing toxicity readout – plate reader, dry powder samples, cytotoxicity control for PAX8 inhibitor project, dose response (AID 743021). It counts as functional, cell-based.
The target in assay [5] is Peroxisome proliferator-activated receptor gamma/Nuclear receptor coactivator 1 (Homo sapiens, UniProt P37231). The assay is described as follows: TR-FRET dose response biochemical High Throughput Screening assay for agonists of the steroid receptor coactivator 1 (SRC-1) recruitment by the peroxisome proliferator-activated receptor gamma (PPAR gamma): non-selective agonists. [Related pubchem assays (depositor defined):AID1300, AID1808, AID504735, AID631]. It counts as protein assay. On the technique in general: TR-FRET usually uses a lanthanide donor and a delayed reading to cut background.

Assay [6] is described as follows: reduction of Shn3 3'UTR-driven luciferase in osteoblasts – cell-based, Clone20 osteoblasts, firefly luciferase, cherry-picked, dose response (AID 624132).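 Further: firefly luciferase luminescence from reporter carrying the Shn3 3'UTR in osteoblasts.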 It counts as functional.
Assay [7] has as its target Peroxisome proliferator-activated receptor gamma/Nuclear receptor coactivator 3 (Homo sapiens, UniProt P37231). As to the kind of experiment: TR-FRET dose response biochemical High Throughput Screening assay for agonists of the steroid receptor coactivator 3 (SRC-3) recruitment by the peroxisome proliferator-activated receptor gamma (PPAR gamma): non-selective agonists. [Related pubchem assays: 1301 (Confirmation screen.), 1048 (Primary screen.)]. It is filed as functional.

In assay [8] the target is Peroxisome proliferator-activated receptor gamma/Nuclear receptor coactivator 2 (Homo sapiens, UniProt P37231). The assay is described as follows: TR-FRET dose response biochemical High Throughput Screening assay for agonists of the steroid receptor coactivator 2 (SRC-2) recruitment by the peroxisome proliferator-activated receptor gamma (PPAR gamma): non-selective agonists. [Related pubchem assays: 1297, 1032 ]. It is filed as functional.

The nature of assay [9]: loss of viability in HepG2 cells – cell-based, CellTiter-Glo, cherry-picked, cytotoxicity control for Shn3 inhibitor project, dose response (AID 624134). It counts as functional. (ATP-based viability assays read luminescence as a measure of living cells.)
Another assay concerns HeLa. The assay is described as follows: Cytotoxicity counterscreen assay for transcriptional activators of heat shock protein 70 (Hsp70). [Related pubchem assays: 1203, 1252 ]. It is filed as functional. The following applies: Homo sapiens. A general note: The purpose of a counterscreen is to sort out artefacts and off-target activity.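 Further: cells exposed to compound for 16 hours before readout.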
The nature of assay [10]: non-specific 3'UTR reporter inhibition in Clone20-Shn3RL – cell-based, Renilla luciferase, cherry-picked, counter-screen for Shn3 inhibitor project, dose response (AID 624133). It counts as functional.
The test system of a further assay is A-375. The assay is described as follows: MITF: Counter assay: A375 proliferation Measured in Cell-Based System Using Plate Reader - 2084-03_Inhibitor_Dose_DryPowder_Activity. [Related pubchem assays (depositor defined):AID488944]. It counts as functional. The following applies: Homo sapiens.
A short description of assay [11]: viability of PTEN-deleted HCT116 cells – cell-based, HCT116 PTEN knockout, dose response (AID 1047).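 Further: HCT116 colon tumor cells with PTEN knocked out; cells exposed to compound for 60 hours before readout; potency for loss of cell viability measured by luminescence.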 It is filed as functional.
Assay [12] concerns the target T2, Microphthalmia-associated transcription factor (Homo sapiens, UniProt O75030).
T2 sequence (O75030 whole entry): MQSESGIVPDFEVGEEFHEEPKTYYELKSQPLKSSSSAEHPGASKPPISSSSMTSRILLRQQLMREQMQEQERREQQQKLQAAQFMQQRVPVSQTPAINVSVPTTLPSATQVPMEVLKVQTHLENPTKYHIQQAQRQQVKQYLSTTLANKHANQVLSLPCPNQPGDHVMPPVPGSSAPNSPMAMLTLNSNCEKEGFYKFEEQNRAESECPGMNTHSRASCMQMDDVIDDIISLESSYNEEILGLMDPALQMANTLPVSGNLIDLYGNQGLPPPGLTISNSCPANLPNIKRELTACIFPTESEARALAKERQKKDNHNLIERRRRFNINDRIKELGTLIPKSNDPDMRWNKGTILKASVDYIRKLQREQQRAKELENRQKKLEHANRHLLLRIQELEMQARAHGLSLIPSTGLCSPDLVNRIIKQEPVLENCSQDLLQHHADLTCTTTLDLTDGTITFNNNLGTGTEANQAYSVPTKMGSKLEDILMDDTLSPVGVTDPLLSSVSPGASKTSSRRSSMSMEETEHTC
The assay is described as follows: reducers of TRPM1 reporter luminescence, concentration series – cell-based, SK-MEL-5, cherry-picked, set 3, MITF inhibitor project, dose response (AID 493073).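 Further: SK-MEL-5 melanoma cells with luciferase driven by the MITF target TRPM1 promoter.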 It is filed as functional.

Assay [13] can be described thus: viability of HCT116 lacking mutant beta-catenin – cell-based, human colon tumor, dose response (AID 1045).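 Further: HCT116 colon tumor cells with beta catenin knocked out; cells exposed to compound for 60 hours.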 It counts as functional.
The subject of assay [14] is Streptococcus sp. 'group A'. As to the kind of experiment: Streptococcus pyogenes SK(-)GAS viability under kanamycin – luminescence, BacTiterGlo, confirmation, counter-screen for streptokinase expression inhibitor project, dose response (AID 1900). It is filed as functional, organism-based.
For another assay, the system named is Streptococcus. As to the kind of experiment: GAS UMAA2166 growth inhibition – luminescence, BacTiterGlo, counter-screen for streptokinase expression inhibitor project, dose response (AID 1915).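 Further: potency for reduction of bacterial viability or growth.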 It is filed as functional, organism-based.
The next assay has as its target T3, Streptokinase A (Streptococcus pyogenes serotype M1, UniProt P10520).
T3 sequence (P10520 whole entry): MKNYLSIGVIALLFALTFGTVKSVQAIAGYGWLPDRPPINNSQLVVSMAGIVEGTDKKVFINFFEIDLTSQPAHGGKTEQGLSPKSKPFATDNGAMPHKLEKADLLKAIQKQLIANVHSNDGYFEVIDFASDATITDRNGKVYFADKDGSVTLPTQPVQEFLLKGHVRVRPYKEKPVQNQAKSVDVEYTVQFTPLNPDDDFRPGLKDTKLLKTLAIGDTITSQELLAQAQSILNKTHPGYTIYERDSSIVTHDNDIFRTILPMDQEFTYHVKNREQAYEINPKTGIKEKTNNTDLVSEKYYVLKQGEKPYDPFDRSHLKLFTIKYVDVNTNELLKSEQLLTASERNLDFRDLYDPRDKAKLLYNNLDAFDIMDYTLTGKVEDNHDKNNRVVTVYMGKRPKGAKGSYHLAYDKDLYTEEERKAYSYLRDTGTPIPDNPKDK
As to the kind of experiment: viability-normalized secreted streptokinase activity reduction – plasminogen activation absorbance, OD405, dose response (AID 1914).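 Further: secreted streptokinase activity via plasminogen activation per viability signal from cell pellet.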 It is filed as functional, Streptococcus pyogenes M1 GAS.

Assay [15] in a line: Luminescence Cell-Based Dose Response HTS to Identify Inhibitors of 5'UTR Stem-Loop Driven Prion Protein mRNA Translation in H4 Neuroglioblastoma Cells. [Related pubchem assays: 1827 (Project Summary), 1813 (Primary HTS)]. It counts as functional.
In the next assay the test system is INS1. As to the kind of experiment: INS-1E survival protection against cytokine death – cell-based, luminescence, retest, dose response (AID 449756).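 Further: cell death triggered by IL-1 beta plus TNF-alpha plus IFN-gamma mixture; protective hits raise ATP signal compared with cytokine alone wells.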 It is filed as functional. The following applies: Rattus norvegicus.
Assay [16] in a line: luciferase reporter signal suppression in cells – H4 neuroglioma cells, luminescence, dose response (AID 1990). It counts as functional, cell-based.
The nature of assay [17]: HEK-293T viability loss after treatment – luminescence, T-cell screen hits, cytotoxicity control for TCR NF-kB inhibitor project, dose response (AID 489026).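 Further: cells exposed to compound about 14 hours before the viability readout.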 It is filed as functional, cell-based.
In assay [18] the target is Glucose-6-phosphate 1-dehydrogenase (Homo sapiens, UniProt P11413). As to the kind of experiment: inhibition of Homo sapiens G6PD, dose series – biochemical, fluorescence, selectivity assay for P. falciparum G6PD inhibitor project, dose response (AID 504792). It is filed as functional.
The nature of assay [19]: DRD fibroblast viability loss – cell-based, non-viral oncogenic, luminescence, dose response (AID 1934). It is filed as functional. The following applies: Homo sapiens.
Assay [20] concerns BJ. As to the kind of experiment: BJ-TERT-LT-ST fibroblast viability loss – cell-based, RAS-independent, luminescence, dose response (AID 1935).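 Further: BJ fibroblasts immortalized with TERT plus LT and ST oncogenes.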 It is filed as functional. To be noted: Homo sapiens.
For a further assay, the target named is Large T antigen (Simian virus 40, UniProt P03070). It counts as functional, Betapolyomavirus macacae.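 Further: Confirmatory-stage PubChem screen for compounds that inhibit SV40 T antigen.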
In assay [21] the test system is BJ. The assay is described as follows: BJ-TERT fibroblast viability loss – cell-based, RAS-independent, luminescence, dose response (AID 1933). The following applies: Homo sapiens. It is filed as functional.
Assay [22] concerns BJ. As to the kind of experiment: cells. To be noted: Homo sapiens. It is filed as functional, cell-based.
Assay [23] is described as follows: alpha-synuclein stem-loop luciferase translation blockers – H4 neuroglioma cells, luminescence, confirmation (AID 1988). It is filed as functional, cell-based.
Assay [24] concerns the target Heat shock protein HSP 90-alpha (Homo sapiens, UniProt P07900). It is filed as functional, organism-based.

Structures are written as SMILES. Calls of active or inactive are those of the source. Where only a bound is given, the exact number is not on record here.

Intestinal-type alkaline phosphatase (Mus musculus, UniProt P24822), sequence (P24822 whole entry): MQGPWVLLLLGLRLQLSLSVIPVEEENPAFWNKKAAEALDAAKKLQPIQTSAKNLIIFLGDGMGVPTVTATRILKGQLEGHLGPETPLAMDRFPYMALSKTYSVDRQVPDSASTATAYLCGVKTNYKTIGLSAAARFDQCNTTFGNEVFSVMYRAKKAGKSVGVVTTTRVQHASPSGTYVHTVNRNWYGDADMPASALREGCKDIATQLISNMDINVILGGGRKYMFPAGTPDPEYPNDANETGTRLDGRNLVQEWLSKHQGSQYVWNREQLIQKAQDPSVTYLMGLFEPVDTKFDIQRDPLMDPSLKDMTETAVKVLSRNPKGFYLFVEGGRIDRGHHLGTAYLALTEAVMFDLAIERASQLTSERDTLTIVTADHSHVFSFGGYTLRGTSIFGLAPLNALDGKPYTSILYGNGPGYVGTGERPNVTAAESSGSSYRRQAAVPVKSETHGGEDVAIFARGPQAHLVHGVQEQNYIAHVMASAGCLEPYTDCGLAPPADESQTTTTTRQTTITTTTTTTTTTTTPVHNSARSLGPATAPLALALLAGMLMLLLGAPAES
Intestinal-type alkaline phosphatase (Homo sapiens, UniProt P09923), sequence (P09923 whole entry): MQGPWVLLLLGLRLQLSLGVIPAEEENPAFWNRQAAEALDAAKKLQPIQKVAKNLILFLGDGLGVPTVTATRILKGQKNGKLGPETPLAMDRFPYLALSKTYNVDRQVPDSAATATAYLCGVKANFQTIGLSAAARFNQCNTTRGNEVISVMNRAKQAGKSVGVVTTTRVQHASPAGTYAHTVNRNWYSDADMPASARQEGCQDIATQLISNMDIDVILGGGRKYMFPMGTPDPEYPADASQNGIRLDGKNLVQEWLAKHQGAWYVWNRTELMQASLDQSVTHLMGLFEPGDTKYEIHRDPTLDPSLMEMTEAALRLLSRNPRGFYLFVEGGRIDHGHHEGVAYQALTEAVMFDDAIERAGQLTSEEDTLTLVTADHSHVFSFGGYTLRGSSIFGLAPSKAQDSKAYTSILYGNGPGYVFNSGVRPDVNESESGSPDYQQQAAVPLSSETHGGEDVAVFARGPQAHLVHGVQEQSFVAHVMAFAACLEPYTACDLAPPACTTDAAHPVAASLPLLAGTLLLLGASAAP
Glucose-6-phosphate 1-dehydrogenase, sequence (P11413 whole entry): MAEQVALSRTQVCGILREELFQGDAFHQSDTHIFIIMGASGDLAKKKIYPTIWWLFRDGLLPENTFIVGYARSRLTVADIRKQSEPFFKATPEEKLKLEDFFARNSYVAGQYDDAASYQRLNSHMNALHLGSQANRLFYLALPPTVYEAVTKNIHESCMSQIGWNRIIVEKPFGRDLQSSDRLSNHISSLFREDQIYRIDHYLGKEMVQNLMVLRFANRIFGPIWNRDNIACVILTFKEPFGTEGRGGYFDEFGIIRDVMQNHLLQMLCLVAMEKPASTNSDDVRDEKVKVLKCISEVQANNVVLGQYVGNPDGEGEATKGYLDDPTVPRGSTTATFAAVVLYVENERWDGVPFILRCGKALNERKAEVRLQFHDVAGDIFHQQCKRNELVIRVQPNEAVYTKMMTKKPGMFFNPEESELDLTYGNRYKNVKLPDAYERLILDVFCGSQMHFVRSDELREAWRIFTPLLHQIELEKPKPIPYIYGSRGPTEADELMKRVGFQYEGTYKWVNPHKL
Paired box protein Pax-8, sequence (Q06710 whole entry): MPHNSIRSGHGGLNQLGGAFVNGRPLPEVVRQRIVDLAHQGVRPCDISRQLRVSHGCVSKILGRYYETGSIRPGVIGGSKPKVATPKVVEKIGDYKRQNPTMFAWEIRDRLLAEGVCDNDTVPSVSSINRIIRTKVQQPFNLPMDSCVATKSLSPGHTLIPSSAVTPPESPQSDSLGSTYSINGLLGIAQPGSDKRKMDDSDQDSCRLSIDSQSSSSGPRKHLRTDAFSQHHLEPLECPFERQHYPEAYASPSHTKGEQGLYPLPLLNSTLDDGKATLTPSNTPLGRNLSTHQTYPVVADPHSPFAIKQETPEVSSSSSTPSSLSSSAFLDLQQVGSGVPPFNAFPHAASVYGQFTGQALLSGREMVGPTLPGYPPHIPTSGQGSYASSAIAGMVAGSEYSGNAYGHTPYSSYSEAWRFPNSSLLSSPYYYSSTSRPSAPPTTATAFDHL
Large T antigen, sequence (P03070 whole entry): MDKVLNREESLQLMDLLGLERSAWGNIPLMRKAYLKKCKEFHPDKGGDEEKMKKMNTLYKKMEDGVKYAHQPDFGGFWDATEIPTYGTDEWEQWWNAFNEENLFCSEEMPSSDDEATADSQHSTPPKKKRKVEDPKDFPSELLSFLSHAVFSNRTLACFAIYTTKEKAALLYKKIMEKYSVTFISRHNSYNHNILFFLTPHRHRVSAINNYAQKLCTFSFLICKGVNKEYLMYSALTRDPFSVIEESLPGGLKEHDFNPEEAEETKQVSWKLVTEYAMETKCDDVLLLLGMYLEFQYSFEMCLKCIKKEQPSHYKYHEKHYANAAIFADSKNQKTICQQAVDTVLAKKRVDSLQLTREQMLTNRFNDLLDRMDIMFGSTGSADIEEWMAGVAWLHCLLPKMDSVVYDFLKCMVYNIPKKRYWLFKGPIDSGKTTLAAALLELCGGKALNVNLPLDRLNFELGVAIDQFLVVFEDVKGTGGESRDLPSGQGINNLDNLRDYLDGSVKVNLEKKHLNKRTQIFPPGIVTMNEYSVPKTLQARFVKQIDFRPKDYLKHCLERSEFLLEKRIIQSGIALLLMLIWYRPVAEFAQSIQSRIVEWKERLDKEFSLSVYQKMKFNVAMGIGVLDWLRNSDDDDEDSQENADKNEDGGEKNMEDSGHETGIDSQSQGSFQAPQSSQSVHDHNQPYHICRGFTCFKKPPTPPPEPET
Peroxisome proliferator-activated receptor gamma/Nuclear receptor coactivator 2, sequence (P37231 whole entry): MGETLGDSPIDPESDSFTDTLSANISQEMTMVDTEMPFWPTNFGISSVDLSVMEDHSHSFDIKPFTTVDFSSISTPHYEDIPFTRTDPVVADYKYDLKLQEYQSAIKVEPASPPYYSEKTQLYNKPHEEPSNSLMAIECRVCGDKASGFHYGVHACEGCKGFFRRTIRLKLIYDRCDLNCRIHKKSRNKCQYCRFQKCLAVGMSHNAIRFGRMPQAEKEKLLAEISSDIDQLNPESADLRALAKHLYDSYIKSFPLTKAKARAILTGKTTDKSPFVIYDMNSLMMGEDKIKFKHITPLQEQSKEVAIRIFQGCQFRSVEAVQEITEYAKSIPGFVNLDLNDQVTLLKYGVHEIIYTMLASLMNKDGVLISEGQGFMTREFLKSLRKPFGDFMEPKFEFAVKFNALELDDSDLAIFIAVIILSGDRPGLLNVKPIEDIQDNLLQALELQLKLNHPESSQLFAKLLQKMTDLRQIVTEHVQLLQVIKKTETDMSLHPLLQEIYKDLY
Peroxisome proliferator-activated receptor gamma/Nuclear receptor coactivator 2, sequence (Q15596 whole entry, further chain): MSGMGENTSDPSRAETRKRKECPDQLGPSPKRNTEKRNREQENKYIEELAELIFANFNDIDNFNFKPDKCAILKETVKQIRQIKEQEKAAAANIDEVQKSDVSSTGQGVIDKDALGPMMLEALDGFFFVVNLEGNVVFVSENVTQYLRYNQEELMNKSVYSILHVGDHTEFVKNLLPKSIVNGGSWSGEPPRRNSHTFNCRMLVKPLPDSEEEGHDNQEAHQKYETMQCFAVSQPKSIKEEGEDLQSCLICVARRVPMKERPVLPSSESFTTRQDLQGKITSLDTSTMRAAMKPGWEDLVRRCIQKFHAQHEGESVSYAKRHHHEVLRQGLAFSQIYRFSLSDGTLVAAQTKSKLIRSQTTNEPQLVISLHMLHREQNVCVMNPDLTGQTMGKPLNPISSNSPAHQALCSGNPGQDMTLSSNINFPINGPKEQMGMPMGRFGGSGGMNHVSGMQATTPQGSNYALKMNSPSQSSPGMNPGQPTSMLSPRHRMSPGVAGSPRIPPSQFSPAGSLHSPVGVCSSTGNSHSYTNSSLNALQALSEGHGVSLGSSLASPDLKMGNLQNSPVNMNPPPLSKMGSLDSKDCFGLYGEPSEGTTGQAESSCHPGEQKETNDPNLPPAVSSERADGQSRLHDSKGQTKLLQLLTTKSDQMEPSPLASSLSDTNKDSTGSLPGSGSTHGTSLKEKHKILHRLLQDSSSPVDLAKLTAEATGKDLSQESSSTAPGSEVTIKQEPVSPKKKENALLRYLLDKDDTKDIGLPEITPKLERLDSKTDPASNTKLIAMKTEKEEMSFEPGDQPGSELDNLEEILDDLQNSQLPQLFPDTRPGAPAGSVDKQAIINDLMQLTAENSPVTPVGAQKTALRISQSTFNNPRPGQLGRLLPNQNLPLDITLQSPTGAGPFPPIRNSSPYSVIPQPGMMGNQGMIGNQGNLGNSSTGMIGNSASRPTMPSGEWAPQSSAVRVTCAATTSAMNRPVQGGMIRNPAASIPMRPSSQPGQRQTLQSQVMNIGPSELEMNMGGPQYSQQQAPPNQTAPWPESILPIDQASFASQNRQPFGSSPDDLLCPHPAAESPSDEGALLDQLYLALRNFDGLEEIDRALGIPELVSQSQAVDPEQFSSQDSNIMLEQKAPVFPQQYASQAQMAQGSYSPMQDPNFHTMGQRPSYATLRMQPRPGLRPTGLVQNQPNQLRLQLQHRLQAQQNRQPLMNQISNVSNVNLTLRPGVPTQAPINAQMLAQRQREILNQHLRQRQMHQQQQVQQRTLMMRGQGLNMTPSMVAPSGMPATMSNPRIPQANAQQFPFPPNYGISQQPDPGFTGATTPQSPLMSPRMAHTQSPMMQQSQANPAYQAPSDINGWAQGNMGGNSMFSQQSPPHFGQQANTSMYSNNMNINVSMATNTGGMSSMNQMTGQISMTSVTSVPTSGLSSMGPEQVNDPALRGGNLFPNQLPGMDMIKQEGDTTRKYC

`O=S(=O)(c1ccc2nc(O)oc2c1)N1CCCCC1`: the IC50 was > 100 µM (inactive) in assay [1], 36.5 µM (active) in [2] and 1.67 µM (active) in assay [3].

For `O=c1c(Br)c(Br)cnn1-c1ccccc1`, the AC50 on Paired box protein Pax-8 was 8.26 µM (active); in assay [4], 14.8 µM (active); in assay [6] it was 1.82 µM (active); in assay [9] it was 25.4 µM (active); in assay [10], 2.75 µM (active). Moreover, the EC50 was > 79.4 µM (inactive) in [5], > 79.4 µM (not active) in assay [7] and > 79.4 µM (not active) in [8]. In the assay with HeLa, the CC50 is > 11 µM (not active).

`COc1ccc(C(CCNC(C)c2ccccc2)c2ccc(F)cc2)cc1` (configuration not stated): the AC50 with A-375 was 13.8 µM (active); in assay [12], 16.6 µM (active). In addition, the EC50 in [11] was 11.2 µM (active); in assay [13], 9.11 µM (active).

With `Cc1ccc(CN=C(S)NC2CCC(C(C)(C)C)CC2)cc1` (configuration not stated), the values for the EC50 (in assay [14]; in the assay on Streptococcus; at Streptokinase A) were 5.46 µM (active), > 150 µM (not active) and 13.1 µM (active), respectively. In addition, the IC50 is > 100 µM (inactive) in [1], 48 µM (active) in assay [2] and 2.35 µM (active) in assay [3].

In the case of `COc1cc(/C=C/C(=O)c2ccc([N+](=O)[O-])o2)ccc1O`, the EC50 in assay [15] was 7.59 µM (active); in [16], > 30 µM (not active); in [14], 3.09 µM (active); with Streptococcus it was 11.8 µM (active); in [19], 2.04 µM (inconclusive); in the assay with BJ [20], 1.09 µM (inconclusive). The EC50 in the assay on BJ [21] was > 150 µM (not active); in the assay with BJ [22], > 150 µM (inconclusive); in assay [23], 8.16 µM (active); at Streptokinase A, 12.8 µM (active). The AC50 is 2.68 µM (active) in the assay on INS1 and 4.28 µM (active) in [24]. For the same compound, the IC50 in assay [17] was 28.5 µM (inactive); in assay [18], 60.4 µM (inactive); at Large T antigen, 8.65 µM (active).
